By IC50 is commonly meant the concentration at which inhibition is half-maximal.

The target of experiment [1] is T1, His tagged full-length PTPN1 protein (Homo sapiens, UniProt P18031).
T1 construct: made in house
T1 sequence (P18031 with tags, fused parts or gaps): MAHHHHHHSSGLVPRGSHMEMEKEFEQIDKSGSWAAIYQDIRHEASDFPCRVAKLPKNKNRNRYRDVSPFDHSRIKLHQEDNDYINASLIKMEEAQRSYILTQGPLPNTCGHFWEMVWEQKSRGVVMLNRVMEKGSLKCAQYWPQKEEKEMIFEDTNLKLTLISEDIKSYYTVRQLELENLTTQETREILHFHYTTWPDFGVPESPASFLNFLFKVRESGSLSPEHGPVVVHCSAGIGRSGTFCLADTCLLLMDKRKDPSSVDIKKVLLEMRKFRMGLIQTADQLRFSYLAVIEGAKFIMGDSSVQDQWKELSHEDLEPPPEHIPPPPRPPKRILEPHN
Kind of experiment: Mobility shift assay (MSA) to determine potency of PTPN1 inhibitors. It counts as biochemical. To be noted: 0.5 nM enzyme, 2 μM substrate. On the procedure:
Compound activity was determined using in house His tagged full-length PTPN1 protein (SEQ ID NO: 3) in an in vitro enzymatic reaction. The enzymatic assay used to determine activity is a mobility shift assay using a LabChip EZ Reader by Caliper Life Sciences. The enzymatic reaction was carried out in assay buffer (50 mM HEPES pH 7.5, 1 mM EGTA, 10 mM EDTA. 0.01% Tween® 20, and 2 mM DTT). The compounds were dispensed on a white 384 well ProxiPlate™ (PerkinElmer Cat #6008289) plate using a Labcyte Echo® liquid handler at varying concentrations (12 point, 1:3 dilution). The enzyme (at 0.5 nM) was incubated with compound for 10 minutes at room temperature. Then the substrate (phosphorylated insulin receptor probe sequence: ((OG488)-(NH—CH2—CH2—O—CH2—CH2—O—CH2—CO)-T-R-D-I-(PY)-E-T-D-Y—Y—R—K—K—NH2) (SEQ ID NO: 2) was added at 2 μM to the plates and incubated for another 10 minutes at room temperature. Finally, a quench solution (water and 4-bromo-3-(2-oxo-2-propoxyethoxy)-5-(3-{[1-(phenylmethanesulfonyl)piperidin-4-yl]amino}phenyl)thiophene-2-carboxylic acid) was added to the plates, which were then run on the EZ Reader (excitation 488 nm, emission 530 nm) to measure % conversion (the amount of phosphorylated substrate which was de-phosphorylated by PTPN1). […] The % inhibition was then used to calculate the IC50 values.

For experiment [2], the target named is T2, His tagged PTPN2 (TC45) protein (Homo sapiens, UniProt P17706).
T2 construct: made in house
T2 sequence (P17706 with tags, fused parts or gaps isoform P17706-2): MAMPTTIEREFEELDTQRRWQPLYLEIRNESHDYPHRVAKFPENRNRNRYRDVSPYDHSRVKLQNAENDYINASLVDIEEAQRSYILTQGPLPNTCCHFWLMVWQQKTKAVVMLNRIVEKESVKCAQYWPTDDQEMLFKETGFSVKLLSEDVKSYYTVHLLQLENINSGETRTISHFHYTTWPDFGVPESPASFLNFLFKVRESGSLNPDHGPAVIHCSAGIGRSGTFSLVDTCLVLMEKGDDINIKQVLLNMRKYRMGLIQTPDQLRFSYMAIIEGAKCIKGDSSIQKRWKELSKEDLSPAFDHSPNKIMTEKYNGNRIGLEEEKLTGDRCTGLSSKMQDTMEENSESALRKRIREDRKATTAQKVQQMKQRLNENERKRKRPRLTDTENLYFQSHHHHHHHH
Put plainly: Mobility shift assay (MSA) to determine potency of PTPN2 inhibitors. The experiment is classed as biochemical. To be noted: 0.5 nM enzyme, 2 μM substrate. How it is done: Compound activity was determined using in house His tagged PTPN2 (TC45) protein (SEQ ID NO: 1) in an in vitro enzymatic reaction. The enzymatic assay used to determine activity was a mobility shift assay using a LabChip EZ Reader by Caliper Life Sciences. The enzymatic reaction was carried out in assay buffer (50 mM HEPES pH 7.5, 1 mM EGTA, 10 mM EDTA, 0.01% Tween® 20, and 2 mM DTT). The compounds were dispensed on a white 384 well ProxiPlate™ (PerkinElmer Catalog #6008289) plate using the Labcyte Echo at varying concentrations (12 point, 1:3 dilution). The enzyme (at 0.5 nM) was incubated with compound for 10 minutes at room temperature. Then the substrate (phosphorylated insulin receptor probe sequence: ((OG488)-(NH—CH2—CH2—O—CH2—CH2—O—CH2—CO)-T-R-D-I-(PY)-E-T-D-Y—Y—R—K—K—NH2) (SEQ ID NO: 2) was added at 2 μM to the plates and incubated for another 10 minutes at room temperature. Finally, a quench solution (water and 4-bromo-3-(2-oxo-2-propoxyethoxy)-5-(3-{[1-(phenylmethanesulfonyl)piperidin-4-yl]amino}phenyl)thiophene-2-carboxylic acid) was added to the plates, which were then run on the EZ Reader (excitation 488 nm, emission 530 nm) to measure % conversion (the amount of phosphorylated substrate which was de-phosphorylated by PTPN2). […] The % inhibition was then used to calculate the IC50 values.

With `O=C1CN(c2c(O)cc3c(c2F)CCCO3)S(=O)(=O)N1` [Compound 111, 5-(5-fluoro-7-hydroxy-3,4-dihydro-2H-1-benzopyran-6-yl)-1λ^6,2,5-thiadiazolidine-1,1,3-trione], the IC50 in experiment [1] and in experiment [2] was 10 to 100 nM throughout.
Turning to `N[C@@H]1COc2cc(O)c(N3CC(=O)NS3(=O)=O)c(F)c2C1` [Compound 326, 5-[(3S)-3-amino-5-fluoro-7-hydroxy-3,4-dihydro-2H-1-benzopyran-6-yl]-1λ^6,2,5-thiadiazolidine-1,1,3-trione], the half-maximal inhibitory concentration (IC50) in experiment [1] and in experiment [2] was 10 to 100 nM each time.
As for `O=C1CN(c2c(O)cc3c(c2F)C[C@H](NCC2CCOC2)CC3)S(=O)(=O)N1` (stereo partly drawn) [Compound 361, 5-[(7R)-1-fluoro-3-hydroxy-7-{[(oxolan-3-yl)methyl]amino}-5,6,7,8-tetrahydronaphthalen-2-yl]-1λ^6,2,5-thiadiazolidine-1,1,3-trione], the IC50 in experiment [1] lay in the range of 10 to 100 nM; in experiment [2], 1 to 10 nM.
`CC(C)(CCN[C@H]1CCc2cc(O)c(N3CC(=O)NS3(=O)=O)c(F)c2C1)C(F)(F)F` (single isomer, unassigned) [Compound 176]: the 50% inhibitory concentration (IC50) in experiment [1] lay in the range of 10 to 100 nM.
`O=C1CN(c2c(O)cc3c(c2F)CC(O)CC3)S(=O)(=O)N1` (stereo not drawn) [Compound 335, 5-(1-fluoro-3,7-dihydroxy-5,6,7,8-tetrahydronaphthalen-2-yl)-1λ^6,2,5-thiadiazolidine-1,1,3-trione]: the IC50 in experiment [1] and in experiment [2] was 10 to 100 nM in each case.
With `CC(C)CCN1CCc2cc(O)c(N3CC(=O)NS3(=O)=O)c(F)c2C1` [Compound 220], the IC50 in experiment [1] and in experiment [2] was 10 to 100 nM throughout.
`NC[C@H]1CCc2cc(O)c(N3CC(=O)NS3(=O)=O)c(F)c2C1` [Compound 404, 5-[(7S)-7-(aminomethyl)-1-fluoro-3-hydroxy-5,6,7,8-tetrahydronaphthalen-2-yl]-1λ^6,2,5-thiadiazolidine-1,1,3-trione]: the 50% inhibitory concentration (IC50) in experiment [1] and in experiment [2] was 10 to 100 nM each time.
With `CN1CCN(CCCN2CCc3cc(O)c(N4CC(=O)NS4(=O)=O)c(F)c3C2)CC1` [Compound 232], the IC50 is 10 to 100 nM in experiment [1] and above 100 nM in experiment [2].
As for `O=C1CN(c2c(O)cc3c(c2F)C[C@@H](NCCC(F)F)CC3)S(=O)(=O)N1` (single isomer, unassigned) [Compound 259], the IC50 in experiment [1] lay within 10 to 100 nM.
With `O=C1CN(c2c(O)cc3c(c2F)CN(C[C@H]2C[C@@H]2c2ccncc2)CC3)S(=O)(=O)N1` (racemic) [Compound 248], the IC50 in experiment [1] was in the range of 10 to 100 nM.
Turning to `CN(C)CCCNC(=O)N1CCc2cc(O)c(N3CC(=O)NS3(=O)=O)c(F)c2C1` [Compound 285], the IC50 in experiment [2] is 10 to 100 nM.
For the compound `CC(C)(CCN[C@@H]1CCc2cc(O)c(N3CC(=O)NS3(=O)=O)c(F)c2C1)C(F)(F)F` (single isomer, unassigned) [Compound 177], the concentration for half-maximal inhibition (IC50) in experiment [1] fell in the range of 1 to 10 nM.
For `CC1=C(CCN[C@@H]2COc3cc(O)c(N4CC(=O)NS4(=O)=O)c(F)c3C2)C(C)(C)CCC1` [Compound 378, 5-[(3S)-5-fluoro-7-hydroxy-3-{[2-(2,6,6-trimethylcyclohex-1-en-1-yl)ethyl]amino}-3,4-dihydro-2H-1-benzopyran-6-yl]-1λ^6,2,5-thiadiazolidine-1,1,3-trione], in experiment [2], the half-maximal inhibitory concentration (IC50) is 10 to 100 nM.
On to `O=C1CN(c2c(O)cc3c(c2F)C[C@@H]([C@H]2CCNC2)CC3)S(=O)(=O)N1` (single isomer, unassigned) [Compound 138], for which, in experiment [1], the IC50 fell in the range of 10 to 100 nM.
For the compound `CC(C)CCNC[C@H]1Cc2cc(O)c(N3CC(=O)NS3(=O)=O)c(F)c2C1` (single isomer, unassigned) [Compound 292], in experiment [1], the IC50 was 10 to 100 nM.
Take `CO[C@H]1CCc2cc(O)c(N3CC(=O)NS3(=O)=O)c(F)c2C1` (single isomer, unassigned) [Compound 109]: the IC50 in experiment [1] lay in the range of 10 to 100 nM.
Still for that read-out and setting: the figure for `O=C1CN(c2c(O)cc3c(c2F)C[C@@H]([C@H]2CCN(S(=O)(=O)C4CC4)C2)CC3)S(=O)(=O)N1` (single isomer, unassigned) [Compound 139] is 10 to 100 nM; for `O=C1CN(c2c(O)cc3c(c2F)C[C@H](NCCC2CC2)CC3)S(=O)(=O)N1` (single isomer, unassigned) [Compound 133] it is 1 to 10 nM.
Same read-out and setting: the figure for `CC(C)CCCC1CCc2cc(O)c(N3CC(=O)NS3(=O)=O)c(F)c2C1` (stereo not drawn) [Compound 323] is 1 to 10 nM.
Take `O=C1CN(c2c(O)cc3c(c2F)C[C@H](NCCC(F)F)CC3)S(=O)(=O)N1` (single isomer, unassigned) [Compound 260]: the IC50 in experiment [1] fell in the range of 1 to 10 nM.
Still for that read-out and setting: for `O=C1CN(c2c(O)cc3c(c2F)C[C@@H]([C@@H]2CCN(S(=O)(=O)C4CC4)C2)CC3)S(=O)(=O)N1` (single isomer, unassigned) [Compound 137] the value was 1 to 10 nM.
`O=C1CN(c2c(O)cc3c(c2F)C[C@@H](NCCCC(F)(F)F)CC3)S(=O)(=O)N1` (single isomer, unassigned) [Compound 147]: in experiment [1], the half-inhibitory concentration (IC50) lay in the range of 10 to 100 nM.
Consider `O=C1CN(c2c(O)cc3c(c2F)C[C@H](NCCC2(C(F)(F)F)CC2)CC3)S(=O)(=O)N1` (single isomer, unassigned) [Compound 148], for which the half-inhibitory concentration (IC50) in experiment [1] is below 1 nM.
Turning to `CC(C)CCNC[C@@H]1Cc2cc(O)c(N3CC(=O)NS3(=O)=O)c(F)c2C1` (single isomer, unassigned) [Compound 291], the 50% inhibitory concentration (IC50) in experiment [1] is 1 to 10 nM.
Same read-out and setting: for `CC(C)(CO)CCN[C@@H]1CCc2cc(O)c(N3CC(=O)NS3(=O)=O)c(F)c2C1` (single isomer, unassigned) [Compound 308] the value was 1 to 10 nM.
In the case of `Cc1cc(CNC(=O)N2CCc3cc(O)c(N4CC(=O)NS4(=O)=O)c(F)c3C2)n(C)n1` [Compound 265], in experiment [2], the IC50 lay within 10 to 100 nM.
Regarding `O=C1CN(c2c(O)cc3c(c2F)C[C@H](NCCCC(F)F)CC3)S(=O)(=O)N1` (single isomer, unassigned) [Compound 199], the IC50 in experiment [1] is below 1 nM.
For the compound `O=C1CN(c2c(O)cc3c(c2F)C[C@@H]([C@@H]2CCNC2)CC3)S(=O)(=O)N1` (single isomer, unassigned) [Compound 136], in experiment [1], the IC50 is 10 to 100 nM.
In the case of `CC(C)CCN[C@H]1CCc2cc(O)c(N3CC(=O)NS3(=O)=O)c(F)c2C1` (single isomer, unassigned) [Compound 117], in experiment [1], the IC50 was 10 to 100 nM.
Take `C[C@@H](O)CCN[C@@H]1CCc2cc(O)c(N3CC(=O)NS3(=O)=O)c(F)c2C1` (single isomer, unassigned) [Compound 307]: the concentration for half-maximal inhibition (IC50) in experiment [1] lay in the range of 1 to 10 nM.
As for `O=C1CN(c2c(O)cc3c(c2F)C[C@@H](NCCC2CC2)CC3)S(=O)(=O)N1` (single isomer, unassigned) [Compound 134], the IC50 in experiment [1] was in the range of 10 to 100 nM.
On to `CO[C@@H]1CCc2cc(O)c(N3CC(=O)NS3(=O)=O)c(F)c2C1` (single isomer, unassigned) [Compound 104], for which, in experiment [1], the IC50 lay in the range of 10 to 100 nM.

The values above are taken from patent US20250122160A1, “PROTEIN TYROSINE PHOSPHATASE INHIBITORS AND METHODS OF USE THEREOF” (Calico Life Sciences LLC, priority 0001, published 2025).
